This passage reports AC50 results from PubChem BioAssay AID493083 (Broad Institute, 2011).

The source made the active and inactive calls.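 How the source made its calls: active means compounds lowering signal whose fitted AC50 is at most ten times the top tested dose; inconclusive means flat fit with moderate inhibition, or poor curve fit; inactive means the rest.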

For orientation: AC50 means the midpoint of the concentration-response curve, whichever way the signal moves.

The test system of the experiment is NIH3T3 R4 HSF-1 GFP reporter, heat shock, 48 h. The experiment is described as follows: decrease of heat-induced HSF-1 GFP reporter, dose response, NIH3T3 R4 cells, GFP/RFP, cherry-pick, set 3 (AID 493083).
In the case of `O=C1C=C(NCCN2CCOCC2)C(=O)c2cnccc21`, the AC50 is 5.57 µM.

Consider `Nc1ccc2oc(C3CCCCC3)nc2c1`, for which the AC50 is > 19.5 µM (inactive).

`CCCCS(=O)(=O)/C=C\C=C/S(=O)(=O)CCCC`: the AC50 was 5.46 µM.

For `CN=c1scc(-c2ccco2)n1/N=C/c1ccc(O)c(O)c1`, the half-maximal activity concentration (AC50) was 5.23 µM.

On to `COc1ccc2[nH]c(=O)c(CN(Cc3cccs3)S(=O)(=O)c3c(C)ccc4nsnc34)cc2c1`, for which the AC50 is > 19.5 µM (inactive).

For `OCCCNc1nccc(-c2cc(Nc3cccc(Cl)c3)ncn2)n1`, the AC50 is 18.7 µM.

Turning to `Cc1cc(C)c2nc(C(F)(F)F)c(C#N)c(N)c2c1`, the AC50 was > 19.5 µM (inactive).

On to `O=C(CCl)Nc1cc(SCC(O)CO)cc([N+](=O)[O-])c1` (configuration not stated), for which the AC50 is 5.73 µM.

Regarding `CCc1ccc(S(=O)(=O)/N=C2\C=C(Nc3ccc(O)cc3)C(=O)c3ccccc32)cc1`, the AC50 is 1.74 µM.

For the molecule `Nc1nc(F)nc2c1ncn2[C@@H]1O[C@H](CO)[C@@H](O)[C@H]1O`, the AC50 was 1.61 µM.

For the molecule `NNC(=S)NC1CC2CC1C1C=CCC21` (configuration not stated), the AC50 was > 19.5 µM (inactive).

For `COc1ccc(C[C@H]2NC[C@H](O)[C@H]2OC(C)=O)cc1`, the half-maximal activity concentration (AC50) is 0.551 µM.

As for `O=C(Nc1ccccc1Cl)/C(Cl)=C(\Cl)S(=O)c1ccccc1` (configuration not stated), the concentration at half-maximal activity (AC50) was 1.81 µM.

For the molecule `CCOC(=O)Cc1nnc2c(Nc3ccccc3F)nc3nonc3n12`, the half-maximal activity concentration (AC50) is 12.4 µM.

With `Cc1ccc(-n2nc(C)c3cc(C(=O)O)sc32)cc1`, the AC50 was > 19.5 µM (inactive).

For `O=C(CCl)Nc1cn(-c2ccccc2)nc1-c1ccc(F)cc1`, the AC50 was 4.77 µM.

Regarding `Cn1c(=O)c([N+](=O)[O-])c(Cl)c2ccccc21`, the AC50 is 16.9 µM.

Consider `CCN(c1ccccc1)S(=O)(=O)c1cnc[nH]1`, for which the AC50 is > 19.5 µM (inactive).

Regarding `COc1cccc(-c2nnc3n2N=C(C(C)(C)C)CS3)c1`, the AC50 was > 19.5 µM (inactive).

Consider `CC(C)(C)c1ccc2c(c1)OC(C(=O)N/N=C\c1ccc[nH]1)CO2` (configuration not stated), for which the AC50 is 0.848 µM.

Consider `Nc1ncnc2c1ccn2[C@@H]1O[C@H](CO)[C@@H](O)[C@H]1O`, for which the AC50 is 10.5 µM.

Turning to `NC(=O)C1CCN(CC(=O)Nc2nc(-c3ccccc3)cs2)CC1`, the AC50 is > 19.5 µM (inactive).

For `CC[C@H]1CN2CCc3cc(OC)c(OC)cc3[C@@H]2C[C@@H]1C[C@H]1NCCc2cc(OC)c(OC)cc21`, the concentration at half-maximal activity (AC50) is 0.526 µM.

As to `Fc1ccc(-n2cc(-c3ccccc3)c3c(N4CCOCC4)ncnc32)cc1`, the AC50 is > 19.5 µM (inactive).

Consider `O=S(=O)(C/C(=C/CO)S(=O)(=O)c1ccccc1)c1ccccc1`, for which the AC50 is 5.86 µM.

With `C=C(C)C(=O)O[C@H]1C/C(C)=C\C(=O)/C=C(\C)[C@H](O)[C@@H]2OC(=O)C(=C)[C@@H]21`, the concentration at half-maximal activity (AC50) was 15.4 µM.

For the molecule `COc1cc(C2CC(c3cccs3)=NN2C(=O)CCl)ccc1OC(F)F` (configuration not stated), the AC50 is 14.8 µM.

As to `C[C@H]1C[C@@H](C)C(=O)[C@@H]([C@H](O)CC2CC(=O)NC(=O)C2)C1`, the half-maximal activity concentration (AC50) was 0.336 µM.

`O=S(=O)(c1ccc2c(c1)C(=NO)c1cc(S(=O)(=O)N3CCCCC3)ccc1-2)N1CCCCC1`: the half-maximal activity concentration (AC50) was 2.08 µM.

As to `Cc1ccc(S(=O)(=O)c2ncccc2[N+](=O)[O-])cc1`, the AC50 is 5.64 µM.

As to `CC(C)CN=C(NS(=O)(=O)c1ccccc1)C(Cl)(Cl)Cl`, the AC50 was 16.1 µM.

Take `CC12CCC(C/C1=N\N=C1\NC(=O)/C(=C\c3ccc(Cl)cc3)S1)C2(C)C` (configuration not stated): the AC50 was 2.4 µM.

`Cc1nn(-c2ccccc2)c(N)c1C(O)(CSc1nccn1C)C(F)(F)F` (configuration not stated): the AC50 is > 19.5 µM (inactive).

Take `Cc1c(NC(=O)C2CC(c3ccc(F)cc3)=NO2)c(=O)n(-c2ccccc2)n1C` (configuration not stated): the AC50 is > 19.5 µM (inactive).

`O=C(CCl)Nc1ccc(-c2ccccc2)cc1`: the half-maximal activity concentration (AC50) was 17.2 µM.

As to `C#CC(=O)N(c1cc(OC)ccc1OC)C(C(=O)NC1CCCC1)c1cccs1` (configuration not stated), the half-maximal activity concentration (AC50) was 5.66 µM.

In the case of `CCOC(=O)c1c(C)[nH]c2c1-c1ccccc1C(=O)C2=O`, the AC50 is 1.4 µM.

Take `CCOC(=O)C1CCN(C(=O)CC(C)c2ccccc2)CC1` (configuration not stated): the AC50 was > 10 µM (inactive).

For the molecule `O=C(COC(=O)/C=C/c1ccc(C(F)(F)F)cc1)NC1CC1`, the AC50 is > 19.5 µM (inactive).

Take `Cc1cc([N+](=O)[O-])c2ccccc2[n+]1[O-]`: the AC50 was 5.71 µM.

Regarding `O=C(CCl)N(c1ccccc1)C1CCCCC1`, the concentration at half-maximal activity (AC50) is 5.43 µM.

Consider `CCOc1ccc(C(=O)COC(=O)Cc2n[nH]c(=O)c3ccccc23)cc1`, for which the AC50 was > 19.5 µM (inactive).

For the molecule `COc1ccccc1-c1cc(C(F)(F)F)nc(S(=O)(=O)CCCC(=O)NCc2ccc(F)cc2)n1`, the AC50 is 5.18 µM.

As for `S=C1Cc2ccccc2N1`, the AC50 was 12.4 µM.

As to `CC(=O)Cn1ncc(Br)c(Br)c1=O`, the half-maximal activity concentration (AC50) is 5.62 µM.

With `CCOC(=O)/C(=C\c1ccc([N+](=O)[O-])cc1)C(=O)c1cc(C(C)=O)c(Nc2ccccc2)s1`, the AC50 was 11.7 µM.

For the molecule `Cc1ccc(NC2=C/C(=N\S(=O)(=O)c3cccs3)c3ccccc3C2=O)c(C)c1`, the half-maximal activity concentration (AC50) was 1.32 µM.
